US20070010459A1, “Application of asiatic acid and its derivatives to treat pulmonary fibrosis” (priority 2005, published 2007)

Assays:
SD rats [1] = experiment: General reproductive toxicity study in rats; format: in vivo
Experimental: SD rats were intragastric administrated with 120, 380 or 1200 mg/kg of asiaticoside respectively. Male and female were given 4 weeks or two weeks of asiaticoside before combining the cages. The male ones were given 5 additional weeks of asiaticoside, while female ones were given the drug till the 15th day of gestation. […] Weight, contour, internal organs and skeleton of fetus were all normal.

[2] = Pharmacokinetics, tissue distribution and excretion of asiaticoside; format: in vivo, rats; settings: rats, asiaticoside gavage, highest dose (100 mg/kg)
Experimental: Three doses of asiaticoside (10, 33, 100 mg/kg) were gavaged to rats (n=6) and canines (n=4). After dosing, blood was sampled up to 120 or 216 hours in rats and canines respectively. Tissue distribution and excretion studies in rats were carried out with the highest dose.
The respective asiaticoside and asiatic acid in the same bio-matrix were detected by LC/MS/MS and GC/MS. Because the secondary peak resembled a plasma concentration-time profile in both rat and canine rather than conventional compartment fitting, statistical moment analysis was used in calculating pharmacokinetic parameters. […] In addition to the targeted organ, both asiaticoside and asiatic acid were distributed in some other organs, which could be the sign to expand clinical indications.

[3] = test system: rats with pulmonary fibrosis induced by bleomycin; experiment: Pharmacodynamics of asiaticoside in rats with pulmonary fibrosis induced by bleomycin; format: in vivo
Experimental: The rats with lung fibrosis were induced by bleomycin through trachea administration and then treated with asiaticoside. […] The study regimen lasted for 28 days. The lung weight coefficient and hydroyproline (HXP) content were measured on day 2 and 8 after the formation of animal model. CT scan, pathology and serum ECM content measurements were conducted on day 14, 21 and 28 days respectively.

SD rats [4] = experiment: Embryonic and fetus toxicity and teratogenicity test in SD rats; format: in vivo
Experimental: SD rats were given 120, 380 or 1200 mg/kg of asiaticoside respectively through intragastric administration for 10 consecutive days from day 6-15 of gestation. […] Nor there were any fetus anomalies or obform.

[5] = PK study: plasma asiaticoside and asiatic acid after intragastric asiaticoside; format: in vivo, SD rats; settings: asiaticoside 100 mg/kg intragastric; 0.5-24 hours; LC/MS
Experimental: SD rats were given asiaticoside through intragastric administration at 100 mg/kg. The blood samples were taken 0.5, 1, 2, 4, 6, 9, 12 and 24 hours after administration respectively. Plasma samples were prepared and analyzed for asiaticoside and asiatic acid concentration by LC/MS or GC/MS respectively. […] The plasma concentration of asiatic acid peaked after 4-6 hours after administration.

Beagle dogs [6] = experiment: Acute toxicity study in Beagle dogs; format: in vivo; settings: single administration
Excerpt: Therefore the highest dosage was given to the animal. […] Food uptake and activity were normal in the observation period.

[7] = test system: radiation pneumonia and subsequent pulmonary fibrosis induced by Cobalt-60 radiation; experiment: Pharmacodynamics of asiaticoside in radiation pneumonia induced by Cobalt-60 radiation; format: in vivo, rats; parameters: Type IV (collagen content comparison, serum ECM) / Laminin (serum ECM) / Hyaluronic Acid (serum ECM): unit not given here
Experimental: Radiation pneumonia and subsequent pulmonary fibrosis in rats was induced by Cobalt-60 radiation. The efficacies were assessed by the lung weight coefficient, HXP content, serum ECM measurement, CT scan and pathological examinations.

Beagle dogs [8] = experiment: Chronic toxicity study in Beagle dogs; format: in vivo
Experimental: Beagle dogs were given 18, 72 or 240 mg/kg asiaticoside respectively daily for 9 consecutive months along with a control group.

[9] = test system: primary culture of mice fibroblast; experiment: bFGF-stimulated proliferation of primary fibroblast culture; format: cell-based; settings: bFGF 0.5 g/ml; tested at 25, 12.5, 6.25, 3.125 or 1.56 μg
Experimental: Using bFGF (0.5 µg/ml), the proliferation of primary culture of mice fibroblast with the presence of asiaticoside or asiatic acid at 25, 12.5, 6.25, 3.125 or 1.56 μg respectively was assessed.

[10] = asiaticoside, range over 3 doses (4, 12, 36 mg/kg)

## C[C@H]1[C@H](C)CC[C@]2(C(=O)O[C@@H]3O[C@H](CO[C@@H]4O[C@H](CO)[C@@H](O[C@@H]5O[C@H](C)[C@H](O)[C@@H](O)[C@H]5O)[C@H](O)[C@H]4O)[C@@H](O)[C@H](O)[C@H]3O)CC[C@]3(C)C(=CC[C@@H]4[C@@]5(C)C[C@@H](O)[C@H](O)[C@@](C)(CO)[C@@H]5CC[C@]43C)[C@H]12 [Asiaticoside, asiaticoside]
SD rats [1]; 1.2 g/kg
  Clinical observation in male and female animals: bleeding around apertura narium
SD rats [1]; 120, 380 or 1200 mg/kg intragastric
  Reproductive toxicity: no reproductive toxicity
[2]
  Main excretion route: feces, bile and urine
  Tissue accumulation: no apparent tissue accumulation
[3]; asiaticoside 4 mg/kg, 28 days
  HXP content: 19.63 ± 3.91 mg/g
  Lung weight coefficient: 0.63%
[3]; asiaticoside 12 mg/kg, 28 days
  HXP content: 18.95 ± 7.00 mg/g
  Lung weight coefficient: 0.66%
[3]; asiaticoside 36 mg/kg, 28 days
  HXP content: 18.56 ± 3.98 mg/g
  Lung weight coefficient: 0.64%
[3]; asiaticoside 4, 12, 36 mg/kg
  Pathology: light fibroplasias in alveoli pulmonis diaphragm, light lymphocyte infiltration and compensatory emphysema
[3]; asiaticoside 4, 12, 36 mg/kg, not dose dependent
  CT scan findings: ground glass infiltration in the lung tissue was found, but was significantly less than in the model group
[3]; asiaticoside 4, 12 and 36 mg/kg, 28 days
  Overall efficacy: efficacious in preventing and treating lung fibrosis induced by bleomycin to certain extent
[3]; [10]
  ET-1 (cytokine content): 229.62-241.60
  Hyaluronic Acid (serum ECM): 112.66-312.28
  Laminin (serum ECM): 43.83-55.75
  PIIIP (collagen content comparison, serum ECM): 13.87-24.54
  TNF-α (cytokine content): 5.20-6.49
  TNF-[…] (cytokine content): 0.067-0.077
  Type IV (collagen content comparison, serum ECM): 4.33-10.45
SD rats [4]; 1.2 g/kg
  Dose without embryonic and fetus toxicity as multiple of effective dose (6 mg/kg) in mice: 200 ×
  Incidence rate of enlargement of fetus pelvis renalis: increased, yet this was not statistically significant
SD rats [4]; 120, 380 or 1200 mg/kg intragastric, day 6-15 of gestation
  Embryonic and fetus toxicity: no embryonic and fetus toxicity
SD rats [4]; intragastric, day 6-15 of gestation
  Dose with no embryonic and fetus toxicity: 1200 mg/kg
[5]
  Plasma concentration of asiaticoside: only trace quantity
Beagle dogs [6]
  Highest dose given, no toxicity observed (no acute LD50 could be measured): 10000 mg/kg
[7]; asiaticoside 4 mg/kg
  HXP content: 40.88 ± 9.77 mg/g
  Hyaluronic Acid (serum ECM): 259.01 ± 64.39
  Laminin (serum ECM): 39.21 ± 5.69
  Lung weight coefficient: 0.42%
  PIIIP (collagen content comparison, serum ECM): 21.00 ± 9.50
  Type IV (collagen content comparison, serum ECM): 14.74 ± 4.03
[7]; asiaticoside 12 mg/kg
  HXP content: 32.78 ± 4.37 mg/g
  Hyaluronic Acid (serum ECM): 246.91 ± 33.2
  Laminin (serum ECM): 41.11 ± 9.15
  Lung weight coefficient: 0.20%
  PIIIP (collagen content comparison, serum ECM): 18.84 ± 10.70
  Type IV (collagen content comparison, serum ECM): 11.97 ± 4.09
[7]; asiaticoside 36 mg/kg
  HXP content: 31.38 ± 4.75 mg/g
  Hyaluronic Acid (serum ECM): 220.64 ± 67.55
  Laminin (serum ECM): 48.29 ± 10.67
  Lung weight coefficient: 0.34%
  PIIIP (collagen content comparison, serum ECM): 14.27 ± 10.40
  Type IV (collagen content comparison, serum ECM): 10.04 ± 5.69
[7]; high dose asiaticoside group
  CT scan findings: a few fibrotic streaks
[7]; low dose asiaticoside group
  CT scan findings: mild ground glass infiltration and atelectasis in the right lower lung
[7]; median dose asiaticoside group
  CT scan findings: mild ground glass infiltration and fibrotic streaks in the right lung
[7]; pulmonary fibrosis induced by radiation
  Overall efficacy: efficacious in treating pulmonary fibrosis induced by radiation to certain extent
Beagle dogs [8]; 240 mg/kg/d
  Nontoxic dose as multiple of proposed clinical dosage in human: 40 ×
Beagle dogs [8]; 9-month chronic toxicity study, 18, 72 or 240 mg/kg daily
  Nontoxic dose: 240 mg/kg/day
Beagle dogs [8]; 18, 72 or 240 mg/kg daily for 9 consecutive months
  Toxicity observations (behavior, activity, weight, mental state, excrement and urine): no apparent toxicity
[9]
  Inhibitory activity on fibroblast proliferation: no apparent inhibitory activity
